Test results taken from US9982138B2, “Hair color compositions comprising stable violet-blue to blue imidazolium dyes” (Noxell Corporation, priority 2016, dated 2018).
Where a name gives a salt, the structure may show the parent alone.

Tests used:
Format in all cases: physicochemical
[1] = Storage stability: disappearance of the dye on storage at pH 10, 25° C. (UV/visible absorbance); details: % loss on 1-month storage at pH 10, 25° C.
Method: Disappearance of the dye is measured on a Cary 100 UV/visible spectrophotometer using a 1 cm cuvette. A solution of the dye is prepared at a concentration sufficient to give an absorbance of 0.9-1.1 at the dye's λmax when buffered at pH 10.0. The absorbance is measured after storage at 25° C. Percent disappearance is calculated as the difference between the starting absorbance (A0) and the absorbance (At) at a specific storage period divided by the starting absorbance minus the baseline absorbance (Ab), by the following equation: […]

[2] = In-use disappearance of the dye in ammonia buffer with hydrogen peroxide (UV/visible absorbance); details: % loss recorded at 30 minutes in the presence of a 3% peroxide solution at pH 10.58
Method: Disappearance of the dye is measured on a Cary 100 UV/visible spectrophotometer. A solution of the dye in 50% aqueous ethanol at a concentration sufficient to give an absorbance of 2.0 at the dye's λmax and buffered at pH 10.6 with ammonia is mixed with an equal volume of 6% hydrogen peroxide in a 1 cm quartz cuvette. […]

[3] = Color (λmax) by UV/visible spectrophotometer

Q: Which results are given for Cn1cc[n+](C)c1/N=N/c1cc2c3c(c1)OCCN3CCO2 [Compound 8, (E)-1,3-dimethyl-2-((2,3,4,5-tetrahydro-1,6-dioxa-3a-azaphenalen-8-yl)diazenyl)-1H-imidazol-3-ium methyl sulfate]?
A: % Disappearance (Storage) [1]: 1.27%; % Disappearance (In-use) [2]: 1.28%; Color (λmax; nm) [3]: 553 nm

Q: With CN1CCNc2cc(/N=N/c3n(CCCN)cc[n+]3CCCN)ccc21.Cl.Cl.[Br-] [Compound 3, (E)-1,3-bis(3-ammoniopropyl)-2-((1-methyl-1,2,3,4-tetrahydroquinoxalin-6-yl)diazenyl)-1H-imidazol-3-ium bromide dichloride] as the compound, how does the “% Disappearance (Storage)” value [1] read?
A: 4.55%

Q: What about the “% Disappearance (In-use)” value [2] of the same compound?
A: 1.91%

Q: What about the “Color (λmax; nm)” value [3] of the same compound?
A: 580 nm

Q: Which “% Disappearance (Storage)” value [1] does the source give for CCN1CCN(CC)c2cc(/N=N/c3n(CCCN)cc[n+]3CCCN)ccc21.Cl.Cl.[Br-] [Compound 1, (E)-1,3-bis(3-ammoniopropyl)-2-((1,4-diethyl-1,2,3,4-tetrahydroquinoxalin-6-yl)diazenyl)-1H-imidazol-3-ium bromide dichloride] here?
A: 2.05%

Q: What about the “% Disappearance (In-use)” value [2] of the same compound?
A: 2.0%

Q: What about the “Color (λmax; nm)” value [3] of the same compound?
A: 587 nm

Q: With CCCCCN1CCNc2cc(/N=N/c3n(CCCN)cc[n+]3CCCN)ccc21.Cl.Cl.[Br-] [Compound 5, (E)-1,3-bis(3-ammoniopropyl)-2-((1-pentyl-1,2,3,4-tetrahydroquinoxalin-6-yl)diazenyl)-1H-imidazol-3-ium bromide dichloride] as the compound, how does the “% Disappearance (Storage)” value [1] read?
A: 3.14%

Q: And the “% Disappearance (In-use)” value [2]?
A: 2.9%

Q: And the “Color (λmax; nm)” value [3]?
A: 582 nm

Q: Which results are given for CCN1CCN(CC)c2cc(/N=N/c3n(CCC[N+](C)(C)C)cc[n+]3CCC[N+](C)(C)C)ccc21 [Compound 2, (E)-2-((1,4-diethyl-1,2,3,4-tetrahydroquinoxalin-6-yl)diazenyl)-1,3-bis(3-(trimethyl-ammonio)propyl)-1H-imidazol-3-ium tribromide]?
A: % Disappearance (Storage) [1]: 0.71%; % Disappearance (In-use) [2]: 0%; Color (λmax; nm) [3]: 580 nm

Q: Which “% Disappearance (Storage)” value [1] does the source give for CCN1CCN(CC)c2cc(/N=N/c3n(CCCCN)cc[n+]3CCCCN)ccc21 [Compound 9] here?
A: 3.37%

Q: What about the “% Disappearance (In-use)” value [2] of the same compound?
A: 1.85%

Q: And the “Color (λmax; nm)” value [3]?
A: 587 nm

Q: With C=CCN1CCN(CC=C)c2cc(/N=N/c3n(CCCCN)cc[n+]3CCCCN)ccc21 [Compound 7] as the compound, how does the “% Disappearance (Storage)” value [1] read?
A: 4.79%

Q: And the “% Disappearance (In-use)” value [2]?
A: 0.8%

Q: And the “Color (λmax; nm)” value [3]?
A: 580 nm

Q: For CCN1CCN(CC)c2cc(/N=N/c3n(CCC[N+](C)(C)C)cc[n+]3CCC[N+](C)(C)C)ccc21 [Compound 6], which “% Disappearance (Storage)” value [1] is on record?
A: 3.47%

Q: What about the “% Disappearance (In-use)” value [2] of the same compound?
A: 10.86%

Q: And the “Color (λmax; nm)” value [3]?
A: 592 nm

Q: Which results are given for CCCCCN1CCN(CCCCC)c2cc(/N=N/c3n(CCCCN)cc[n+]3CCCCN)ccc21.Cl.Cl.[Br-] [Compound 4, (E)-1,3-bis(4-ammoniobutyl)-2-((1,4-dipentyl-1,2,3,4-tetrahydroquinoxalin-6-yl)diazenyl)-1H-imidazol-3-ium bromide dichloride]?
A: % Disappearance (Storage) [1]: 3.86%; % Disappearance (In-use) [2]: 1.85%; Color (λmax; nm) [3]: 599 nm
